In one data set the target is T1, RXFP1 (Homo sapiens, UniProt Q9HBX9).
T1 construct: OVCAR5 cells expressing endogenous RXFP1; endogenous in cells; host or cells: OVCAR5 cells
T1 sequence (Q9HBX9 1-757): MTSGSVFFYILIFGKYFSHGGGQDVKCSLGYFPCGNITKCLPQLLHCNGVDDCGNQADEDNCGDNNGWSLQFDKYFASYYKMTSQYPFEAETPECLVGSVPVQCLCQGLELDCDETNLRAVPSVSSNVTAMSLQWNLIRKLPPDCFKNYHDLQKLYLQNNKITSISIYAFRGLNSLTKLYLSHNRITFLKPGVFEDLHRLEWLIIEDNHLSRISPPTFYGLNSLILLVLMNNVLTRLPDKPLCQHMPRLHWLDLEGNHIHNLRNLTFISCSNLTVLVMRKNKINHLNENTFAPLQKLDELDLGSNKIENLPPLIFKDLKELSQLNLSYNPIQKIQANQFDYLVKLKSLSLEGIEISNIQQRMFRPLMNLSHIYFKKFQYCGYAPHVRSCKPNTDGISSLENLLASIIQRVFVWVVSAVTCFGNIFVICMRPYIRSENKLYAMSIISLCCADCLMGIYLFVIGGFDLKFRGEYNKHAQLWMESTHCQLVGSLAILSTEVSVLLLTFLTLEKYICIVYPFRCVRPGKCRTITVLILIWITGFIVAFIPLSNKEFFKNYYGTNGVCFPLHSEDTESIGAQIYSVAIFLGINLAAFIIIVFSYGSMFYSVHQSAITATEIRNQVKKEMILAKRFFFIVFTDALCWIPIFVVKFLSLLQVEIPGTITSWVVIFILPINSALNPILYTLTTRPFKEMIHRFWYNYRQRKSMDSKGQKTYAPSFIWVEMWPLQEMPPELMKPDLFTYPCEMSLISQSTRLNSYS
Put plainly: OVCAR5 cAMP assay (HTRF), RXFP1 agonist activity. The format is cell-based. The settings on record: for Emax: OVCAR-5, maximal cAMP relative to H2-relaxin maximum (100%), read-out: EMax, OVCAR 5 cells (cAMP); for EC50: OVCAR5 cells, cAMP HTRF, read-out: EC50 (nM), OVCAR 5 cells (cAMP). In short, it runs like this: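 cAMP accumulation readout: after 1 mM IBMX for 40 min, endogenous-RXFP1 OVCAR5 cells got rising peptide concentrations without FCS, 30 min, 37° C, then lysis with HTRF cAMP reagents. Nonlinear regression gave EC50; Emax expressed relative to H2-relaxin maximum, same occasion.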
A general note: Cyclic AMP is a second messenger, typically raised through Gs and lowered through Gi signalling.

A short description of data set [1]: Pharmacokinetic (PK) determination after i.v. or s.c. administration to rats. The format is in vivo, Sprague Dawley rats. The settings on record: Rat PK; for C0 / half-life / Cmax / Tmax / bioavailability: Sprague Dawley; for C0 / half-life: iv; for C0: extrapolated plasma concentration at t=0, read-out: C0; for half-life / Cmax / Tmax / bioavailability: plasma; for half-life: read-out: T½ (converted); for Cmax / Tmax: sc, 3 mg/kg s.c.; for bioavailability: subcutaneous, 3 mg/kg s.c. vs 1 mg/kg i.v., dose-corrected AUC ratio. The method, then:
Prior to the testing of a peptide batch, its purity (HPLC-UV) was determined. Dose was corrected for presence of salts, solvent and purity.
Sprague Dawley rats were dosed with study peptide at a dose of 1 mg/kg intravenously (i.v.) or 3 mg/kg subcutaneously (s.c.) as a solution in PBS (0.2 mg/ml and 0.6 mg/ml respectively).
Plasma samples were analyzed after protein precipitation via liquid chromatography mass spectrometry (LC/MS).
PK parameters and half-life were calculated using Phoenix 64 (WinNonlin 6.4)-Pharsight (Certara™) (non-compartment model). Values below the limit of quantification (BLQ) were replaced by zero for subsequent calculations and PK analysis.
T½: in-vivo half life, time required for test compound plasma concentration to be divided by two during the PK experiment.
C0: Extrapolated test compound plasma concentration at t=0 time point (i.v. route).
Cmax: maximal test compound plasma concentration at the indicated time point (s.c. route).
Tmax: Time point where Cmax is attained.
F %: s.c. vs i.v. bioavailability, dose-corrected area under curve (AUC) s.c. route divided by AUC i.v.

*1 amine or outer side, *2 acyl side, *3 side chain or, on linkers, in order; H or OH if unused. Where a SMILES comes first, the peptide text is derived from it. Side-chain parts run from the residue outwards. [ ]: non-standard residue; d: D form. The star is where a group is joined. PEG12 = NCCOCCOCCOCCOCCOCCOCCOCCOCCOCCOCCOCCOCCC(=O)O; γGlu = O=C(O)[C@H](CCC(=O)[*:2])N[*:1]; 1Nal = N[C@@H](Cc1cccc2ccccc12)C(=O)O; Stearoyl = CCCCCCCCCCCCCCCCCC(=O)*; Palmitoyl = CCCCCCCCCCCCCCCC(=O)*; Nle = CCCC[C@H](N)C(=O)O; Aib = CC(C)(N)C(=O)O

A word on the Emax: it is the greatest response seen or fitted, relative to the assay's reference. A word on the Cmax: it is the maximum level reached in the sampled fluid or tissue. As usually defined, the Tmax is the time at which the peak concentration occurs. What is called bioavailability is dose-corrected exposure relative to a reference, in per cent. In general, EC50 refers to the concentration giving half of the maximal effect.

As to `CCCCCCCCCCCCCCCC(=O)N[C@@H](CCC(=O)N[C@@H](CCC(=O)N[C@@H](CCC(=O)NCCCC[C@H](NC(=O)CCOCCOCCOCCOCCOCCOCCOCCOCCOCCOCCOCCOCCNC(=O)[C@H](CCCCN)NC(=O)[C@H](CCCNC(=N)N)NC(=O)C(C)(C)NC(=O)[C@H](CO)NC(=O)[C@H](Cc1c[nH]c2ccccc12)NC(=O)[C@@H](NC(=O)[C@H](CO)NC(=O)[C@H](CCCC)NC(=O)CNC(=O)[C@H](CCC(=O)O)NC(=O)C(C)(C)NC(=O)C(C)(C)NC(=O)[C@@H](NC(=O)[C@H](CCC(N)=O)NC(=O)[C@H](C)NC(=O)[C@H](CCCNC(=N)N)NC(=O)[C@@H](NC(=O)[C@H](CCCCN)NC(=O)[C@H](CCC(=O)O)NC(=O)[C@H](CCCNC(=N)N)NC(=O)CNC(=O)[C@H](CCC(=O)O)NC(=O)[C@H](CC(C)C)NC(C)=O)C(C)C)[C@@H](C)CC)[C@@H](C)O)C(N)=O)C(=O)O)C(=O)O)C(=O)O` [compound 24] (Ac-LEGREKVRAQI[Aib][Aib]EG[Nle]STWS[Aib]RK[PEG12]K([γGlu-γGlu-γGlu-Palmitoyl])-NH2), at RXFP1, the Emax is 74%. In addition, in data set [1] (1 mg/kg i.v.), the C0 is 3700 nM and the half-life is 6.4 h. Besides, in data set [1], the concentration peaked (Cmax) at 1800 nM, the Tmax is 5 h and the bioavailability was determined as 81%.

`CCCCCCCCCCCCCCCC(=O)N[C@@H](CCC(=O)N[C@@H](CCC(=O)N[C@@H](CCC(=O)NCCCC[C@H](NC(=O)CCOCCOCCOCCOCCOCCOCCOCCOCCOCCOCCOCCOCCNC(=O)[C@H](CCCCNC(C)=O)NC(=O)[C@H](CCCCN)NC(=O)[C@H](CCCNC(=N)N)NC(=O)C(C)(C)NC(=O)[C@H](CO)NC(=O)[C@H](Cc1c[nH]c2ccccc12)NC(=O)[C@@H](NC(=O)[C@H](CO)NC(=O)[C@H](CCCC)NC(=O)CNC(=O)[C@H](CCC(=O)O)NC(=O)C(C)(C)NC(=O)C(C)(C)NC(=O)[C@@H](NC(=O)[C@H](CCCCNC(C)=O)NC(=O)[C@H](C)NC(=O)[C@H](CCCNC(=N)N)NC(=O)[C@@H](NC(=O)[C@H](CCCCN)NC(=O)[C@H](CCC(=O)O)NC(=O)[C@H](CCCNC(=N)N)NC(=O)CNC(=O)[C@H](CCC(=O)O)NC(=O)[C@H](CC(C)C)NC(C)=O)C(C)C)[C@@H](C)CC)[C@@H](C)O)C(N)=O)C(=O)O)C(=O)O)C(=O)O` [compound 26] (Ac-LEGREKVRAK(Ac)I[Aib][Aib]EG[Nle]STWS[Aib]RKK(Ac)[PEG12]K([γGlu-γGlu-γGlu-Palmitoyl])-NH2): on RXFP1, the EC50 was 0.57 nM and the Emax amounted to 85%. For the same molecule, in data set [1] (1 mg/kg i.v.), the C0 was 2330 nM and the half-life was 5.8 h. Moreover, in data set [1], the highest level (Cmax) was 770 nM, the Tmax came to 8 h and the bioavailability amounted to 72%.

For the molecule `CCCCCCCCCCCCCCCC(=O)N[C@@H](CCC(=O)N[C@@H](CCC(=O)N[C@@H](CCC(=O)NCCCC[C@H](NC(=O)CCOCCOCCOCCOCCOCCOCCOCCOCCOCCOCCOCCOCCNC(=O)[C@H](CCCCNC(C)=O)NC(=O)[C@H](CCCCN)NC(=O)[C@H](CCCNC(=N)N)NC(=O)C(C)(C)NC(=O)[C@H](CO)NC(=O)[C@H](Cc1c[nH]c2ccccc12)NC(=O)[C@@H](NC(=O)[C@H](CO)NC(=O)[C@H](CCCC)NC(=O)CNC(=O)[C@H](CCC(=O)O)NC(=O)C(C)(C)NC(=O)C(C)(C)NC(=O)[C@@H](NC(=O)[C@H](CCCCNC(C)=O)NC(=O)C(C)(C)NC(=O)[C@H](CCCNC(=N)N)NC(=O)[C@@H](NC(=O)[C@H](CCCCN)NC(=O)[C@H](CCC(=O)O)NC(=O)[C@H](CCCNC(=N)N)NC(=O)CNC(=O)[C@H](CCC(=O)O)NC(=O)[C@H](CC(C)C)NC(C)=O)C(C)C)[C@@H](C)CC)[C@@H](C)O)C(N)=O)C(=O)O)C(=O)O)C(=O)O` [compound 27] (Ac-LEGREKVR[Aib]K(Ac)I[Aib][Aib]EG[Nle]STWS[Aib]RKK(Ac)[PEG12]K([γGlu-γGlu-γGlu-Palmitoyl])-NH2), at RXFP1, the EC50 came to 0.3 nM and the Emax was found to be 86%. Besides, in data set [1] (1 mg/kg i.v.), the “T½” value is 6.90 h and the C0 is 3200 nM. Further, in data set [1], the Cmax amounted to 1500 nM, the Tmax amounted to 8 h and the bioavailability worked out at 62%.

With `CCCCCCCCCCCCCCCCCC(=O)N[C@@H](CCC(=O)N[C@@H](CCC(=O)N[C@@H](CCC(=O)NCCCC[C@H](NC(=O)CCOCCOCCOCCOCCOCCOCCOCCOCCOCCOCCOCCOCCNC(=O)[C@H](CCCCNC(C)=O)NC(=O)[C@H](CCCCN)NC(=O)[C@H](CCCNC(=N)N)NC(=O)C(C)(C)NC(=O)[C@H](CO)NC(=O)[C@H](Cc1cccc2ccccc12)NC(=O)[C@@H](NC(=O)[C@H](CO)NC(=O)[C@H](CCCC)NC(=O)CNC(=O)[C@H](CCC(=O)O)NC(=O)C(C)(C)NC(=O)C(C)(C)NC(=O)[C@@H](NC(=O)[C@H](CCCCNC(C)=O)NC(=O)C(C)(C)NC(=O)[C@H](CCCNC(=N)N)NC(=O)[C@@H](NC(=O)[C@H](CCCCN)NC(=O)[C@H](CCC(=O)O)NC(=O)[C@H](CCCNC(=N)N)NC(=O)CNC(=O)[C@H](CCC(=O)O)NC(=O)[C@H](CC(C)C)NC(C)=O)C(C)C)[C@@H](C)CC)[C@@H](C)O)C(N)=O)C(=O)O)C(=O)O)C(=O)O` [compound 37] (Ac-LEGREKVR[Aib]K(Ac)I[Aib][Aib]EG[Nle]ST[1Nal]S[Aib]RKK(Ac)[PEG12]K([γGlu-γGlu-γGlu-Stearoyl])-NH2), the Emax on RXFP1 was 83%. Also, in data set [1] (1 mg/kg i.v.), the C0 was 5560 nM and the half-life was 2.55 h. Also, in data set [1], the Cmax amounted to 1710 nM, the Tmax stood at 6 h and the bioavailability is 40%.

On to `CCCCCCCCCCCCCCCC(=O)N[C@@H](CCC(=O)N[C@@H](CCC(=O)N[C@@H](CCC(=O)NCCCC[C@H](NC(=O)CCOCCOCCOCCOCCOCCOCCOCCOCCOCCOCCOCCOCCNC(=O)[C@H](CCCCN)NC(=O)[C@H](CCCNC(=N)N)NC(=O)C(C)(C)NC(=O)[C@H](CO)NC(=O)[C@H](Cc1c[nH]c2ccccc12)NC(=O)[C@@H](NC(=O)[C@H](CO)NC(=O)[C@H](CCCC)NC(=O)CNC(=O)[C@H](CCC(=O)O)NC(=O)C(C)(C)NC(=O)C(C)(C)NC(=O)[C@@H](NC(=O)[C@H](CCCCNC(C)=O)NC(=O)[C@H](C)NC(=O)[C@H](CCCNC(=N)N)NC(=O)[C@@H](NC(=O)[C@H](CCCCN)NC(=O)[C@H](CCC(=O)O)NC(=O)[C@H](CCCNC(=N)N)NC(=O)CNC(=O)[C@H](CCC(=O)O)NC(=O)[C@H](CC(C)C)NC(C)=O)C(C)C)[C@@H](C)CC)[C@@H](C)O)C(N)=O)C(=O)O)C(=O)O)C(=O)O` [compound 38] (Ac-LEGREKVRAK(Ac)I[Aib][Aib]EG[Nle]STWS[Aib]RK[PEG12]K([γGlu-γGlu-γGlu-Palmitoyl])-NH2), for which, at RXFP1, the EC50 is 0.21 nM and the Emax amounted to 89%. In data set [1] (1 mg/kg i.v.), the C0 was 4370 nM and the half-life was 7.16 h. Also, in data set [1], the concentration peaked (Cmax) at 2500 nM, the Tmax was determined as 8 h and the bioavailability was 79%.
